The results in this text go back to patent US10428104B2, “Substituted nucleoside derivatives useful as anticancer agents” (Pfizer Inc., priority 2015, dated 2019).

For the assay, the target named is PRMT5/MEP50 protein complex (Homo sapiens (Human), UniProt O14744). Put plainly: PRMT5 biochemical assay (3H-SAM methylation of H4(1-21) peptide, filter plate scintillation counting). Conditions: PRMT5 enzyme inhibition; 10 nM PRMT5/MEP50 complex, 200 nM H4(1-21) peptide, 1 uM SAM, 25 minute incubation at room temperature. The procedure: Following dilution, 1 ul was added to an empty 96-well microtiter plate. PRMT5/MEP50 protein complex was combined with H4(1-21) peptide ([…]) in PRMT5 assay buffer (50 mM Tris pH 8.5, 50 mM NaCl, 5 mM MgCl2, 1 mM EDTA, 1 mM TCEP) and 44 ul was added to the microtiter plate containing compound. S-Adenosyl-L-methionine (SAM) was prepared by combining ^3H labelled SAM with unlabelled SAM in PRMT5 assay buffer such that the final SAM concentration was 10 uM and the specific activity was 0.2 uCi/ul. The reaction was initiated by adding 5 ul of SAM stock to the microtiter plate. The final reaction conditions were 10 nM PRMT5/MEP50 complex, 200 nM peptide and 1 uM SAM. Following a 25 minute incubation at room temperature, the reaction was stopped with the addition of 100 uL of 20% TCA. The 3H-peptide product was captured using a 96-well filter plate (MSIPN4B, Millipore) and washed 5 times with PBS buffer. Scintillation fluid (100 ul) was added to the dried filter plate and counted in a liquid scintillation counter. IC50 values were determined by fitting the data to the standard 4-parameter dose response equation using Pfizer proprietary software.
Sequence of PRMT5/MEP50 protein complex (O14744 other isoform, or with tags, fused parts or gaps): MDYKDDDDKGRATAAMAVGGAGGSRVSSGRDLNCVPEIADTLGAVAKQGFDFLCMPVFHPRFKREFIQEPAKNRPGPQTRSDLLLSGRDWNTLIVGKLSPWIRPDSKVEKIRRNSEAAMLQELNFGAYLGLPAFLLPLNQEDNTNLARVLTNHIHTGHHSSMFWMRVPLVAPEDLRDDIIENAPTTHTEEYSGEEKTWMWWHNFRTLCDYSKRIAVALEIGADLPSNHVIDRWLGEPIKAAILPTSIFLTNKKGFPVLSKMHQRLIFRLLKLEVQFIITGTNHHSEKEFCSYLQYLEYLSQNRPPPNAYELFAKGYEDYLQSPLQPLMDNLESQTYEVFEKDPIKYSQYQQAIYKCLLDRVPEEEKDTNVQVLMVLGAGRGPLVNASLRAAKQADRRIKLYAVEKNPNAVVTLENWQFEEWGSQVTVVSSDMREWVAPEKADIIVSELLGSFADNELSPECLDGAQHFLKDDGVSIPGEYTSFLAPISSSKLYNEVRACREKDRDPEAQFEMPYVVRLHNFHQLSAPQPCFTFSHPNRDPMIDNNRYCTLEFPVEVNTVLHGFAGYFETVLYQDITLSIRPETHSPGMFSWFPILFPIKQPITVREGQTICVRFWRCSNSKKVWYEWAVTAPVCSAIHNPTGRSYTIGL
Sequence of PRMT5/MEP50 protein complex (Q9BQA1 whole entry partner): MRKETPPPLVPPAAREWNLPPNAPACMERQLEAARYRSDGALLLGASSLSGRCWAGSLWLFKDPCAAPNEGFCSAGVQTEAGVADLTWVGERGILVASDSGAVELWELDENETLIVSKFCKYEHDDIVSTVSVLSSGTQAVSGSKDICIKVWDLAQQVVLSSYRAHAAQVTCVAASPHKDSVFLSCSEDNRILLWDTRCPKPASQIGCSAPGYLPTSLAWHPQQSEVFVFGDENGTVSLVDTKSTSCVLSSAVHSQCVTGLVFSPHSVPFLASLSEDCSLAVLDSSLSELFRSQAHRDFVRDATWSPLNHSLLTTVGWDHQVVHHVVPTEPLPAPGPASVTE
In the final construct PRMT5 ORF was under control of polyhedrin promoter (polH) while MEP50 ORF was under control of p10 promoter.
Viruses were generated using standard Bac-to-Bac viral generation protocols (Life Technologies) and amplified to high-titer passage two (P2) stocks. Protein over expression was conducted in exponentially growing Sf21 cells infected at 2×106 with P2 viral stock at MOI=1 of PRMT5-Mep50 dual construct virus and Mep50 construct virus at 1:1 ratio. The co-expression protocol was used to supplement additional Mep50 for FlagPRMT5-Mep50 heterodimer formation. Cells were harvested at 72 h post infection by centrifugation and frozen pellet was stored at −80° C.
FlagPRMT5-Mep50 complex was purified from cell lysate using Flag affinity chromatography. Cell were lyzed in 50 mM Tris 7.5, 200 mM NaCl, 10% glycerol, 0.25 mM TCEP supplemented with EDTA-free protease inhibitor cocktail (Roche). 1.5 ml of lysis buffer was added per 1 g of frozen pellet. The clarified lysate was obtained by centrifugation of cell lysate at 10,000 g for 1 h at 4 C. 5 ml of Anti-FLAG M2 Agarose (Sigma) […] was added to the clarified lysate to isolate FlagPRMT5-Mep50. Following batch binding for 3 h at 4 C, Flag resin bound to FlagPRMT5-Mep50 washed with 20 column volumes (CV) of 50 mM Tris 7.5, 200 mM NaCl, 10% glycerol, 0.25 mM TCEP followed by elution of FlagPRMT5-Mep50 complex using 3 CV of 50 mM Tris 7.5, 200 mM NaCl, 10% glycerol, 0.25 mM TCEP supplemented with 200 ug/ml of FLAG Peptide ([…]). […] Peak fractions containing FlagPRMT5-Mep50 complex were concentrated to 1.6 mg/ml, flash frozen in small aliquots using liquid nitrogen and stored at −80° C.
`Cc1ncnc2c1ccn2[C@@H]1O[C@H]([C@H](O)C2CCCC2)[C@@H](O)[C@H]1O` [Example 42, (2R,3S,4R,5R)-2-((R)-cyclopentyl(hydroxy)methyl)-5-(4-methyl-7H-pyrrolo[2,3-d]pyrimidin-7-yl)tetrahydrofuran-3,4-diol]: 663 nM corresponded to half-maximal inhibition (IC50).
`Cc1ncnc2c1ccn2[C@@H]1O[C@H]([C@@H](O)C2CCCC2)[C@@H](O)[C@H]1O` [Example 43, (2R,3S,4R,5R)-2-((S)-cyclopentyl(hydroxy)methyl)-5-(4-methyl-7H-pyrrolo[2,3-d]pyrimidin-7-yl)tetrahydrofuran-3,4-diol] gave an IC50 of 74000 nM.
As for `Cc1ncnc2c1ccn2[C@@H]1O[C@H]([C@H](C)O)[C@@H](O)[C@H]1O` [Example 45, (2R,3S,4R,5R)-2-((S)-1-hydroxyethyl)-5-(4-methyl-7H-pyrrolo[2,3-d]pyrimidin-7-yl)tetrahydrofuran-3,4-diol], the IC50 is 1740 nM. This IC50 lies about 43-fold lower than the previous one.
The figure for `Cc1ncnc2c1ccn2[C@@H]1O[C@H]([C@H](O)C2CC2)[C@@H](O)[C@H]1O` [Example 46, (2R,3S,4R,5R)-2-((R)-cyclopropyl(hydroxy)methyl)-5-(4-methyl-7H-pyrrolo[2,3-d]pyrimidin-7-yl)tetrahydrofuran-3,4-diol] is 367 nM.
The figure for `Cc1ncnc2c1ccn2[C@@H]1O[C@H]([C@@H](O)C2CC2)[C@@H](O)[C@H]1O` [Example 47, (2R,3S,4R,5R)-2-((S)-cyclopropyl(hydroxy)methyl)-5-(4-methyl-7H-pyrrolo[2,3-d]pyrimidin-7-yl)tetrahydrofuran-3,4-diol] is 15400 nM.
The molecule `Cc1ncnc2c1ccn2[C@@H]1O[C@H]([C@H](O)C(C)C)[C@@H](O)[C@H]1O` [Example 48, (2R,3S,4R,5R)-2-((R)-1-hydroxy-2-methylpropyl)-5-(4-methyl-7H-pyrrolo[2,3-d]pyrimidin-7-yl)tetrahydrofuran-3,4-diol] came in with an IC50 of 517 nM.
Molecule `Cc1ncnc2c1ccn2[C@@H]1O[C@H]([C@@H](O)C(C)C)[C@@H](O)[C@H]1O` [Example 49, (2R,3S,4R,5R)-2-((S)-1-hydroxy-2-methylpropyl)-5-(4-methyl-7H-pyrrolo[2,3-d]pyrimidin-7-yl)tetrahydrofuran-3,4-diol] showed an IC50 of 37500 nM. This IC50 lies about 73-fold higher than the previous one.
The figure for `Cc1ncnc2c1ccn2[C@@H]1O[C@H]([C@H](O)C2CCC2)[C@@H](O)[C@H]1O` [Example 52, (2R,3S,4R,5R)-2-((R)-cyclobutyl(hydroxy)methyl)-5-(4-methyl-7H-pyrrolo[2,3-d]pyrimidin-7-yl)tetrahydrofuran-3,4-diol] is 1260 nM; for `Cc1ncnc2c1ccn2[C@@H]1O[C@H]([C@@H](O)C2CCC2)[C@@H](O)[C@H]1O` [Example 53, (2R,3S,4R,5R)-2-((S)-cyclobutyl(hydroxy)methyl)-5-(4-methyl-7H-pyrrolo[2,3-d]pyrimidin-7-yl)tetrahydrofuran-3,4-diol] it is 9230 nM; for `Cc1ncnc2c1ccn2[C@@H]1O[C@H]([C@H](O)c2ccco2)[C@@H](O)[C@H]1O` [Example 54, (2S,3S,4R,5R)-2-((S)-furan-2-yl(hydroxy)methyl)-5-(4-methyl-7H-pyrrolo[2,3-d]pyrimidin-7-yl)tetrahydrofuran-3,4-diol] it is 24 nM.
`Cc1ncnc2c1ccn2[C@@H]1O[C@H]([C@@H](O)c2ccco2)[C@@H](O)[C@H]1O` [Example 55, (2S,3S,4R,5R)-2-((R)-furan-2-yl(hydroxy)methyl)-5-(4-methyl-7H-pyrrolo[2,3-d]pyrimidin-7-yl)tetrahydrofuran-3,4-diol] returned an IC50 of 4760 nM.
The figure for `Cc1ncnc2c1ccn2[C@@H]1O[C@H]([C@H](O)C(F)(F)F)[C@@H](O)[C@H]1O` [Example 56, (2R,3R,4S,5S)-2-(4-methyl-7H-pyrrolo[2,3-d]pyrimidin-7-yl)-5-((S)-2,2,2-trifluoro-1-hydroxyethyl)tetrahydrofuran-3,4-diol] is 11 nM; for `Cc1ncnc2c1ccn2[C@@H]1O[C@H]([C@@H](O)C(F)(F)F)[C@@H](O)[C@H]1O` [Example 57, (2R,3R,4S,5S)-2-(4-methyl-7H-pyrrolo[2,3-d]pyrimidin-7-yl)-5-((R)-2,2,2-trifluoro-1-hydroxyethyl)tetrahydrofuran-3,4-diol] it is 6310 nM; for `Cc1ncnc2c1ccn2[C@@H]1O[C@H](Cn2cccn2)[C@@H](O)[C@H]1O` [Example 58, (2R,3S,4R,5R)-2-((1H-pyrazol-1-yl)methyl)-5-(4-methyl-7H-pyrrolo[2,3-d]pyrimidin-7-yl)tetrahydrofuran-3,4-diol] it is 1980 nM.
Take `Cc1ncnc2c1ccn2[C@@H]1OC(C(F)(F)c2ccc(F)cc2)[C@@H](O)[C@H]1O` (stereo partly drawn) [Example 59, (3S,4R,5R)-2-(difluoro(4-fluorophenyl)methyl)-5-(4-methyl-7H-pyrrolo[2,3-d]pyrimidin-7-yl)tetrahydrofuran-3,4-diol]: half-maximal inhibition (IC50) was put at 491 nM.
As for `Cc1nc(N)nc2c1ccn2[C@@H]1O[C@H]([C@@H](O)c2ccc(F)cc2)[C@@H](O)[C@H]1O` [Example 65, (2R,3R,4S,5R)-2-(2-amino-4-methyl-7H-pyrrolo[2,3-d]pyrimidin-7-yl)-5-((S)-(4-fluorophenyl)(hydroxy)methyl)tetrahydrofuran-3,4-diol], it took 488 nM to reach half-maximal inhibition (IC50).
The figure for `Cc1ncnc2c1ccn2[C@@H]1O[C@@H](c2ccccc2)[C@@H](O)[C@H]1O` [Example 66, (2R,3R,4S,5S)-2-(4-methyl-7H-pyrrolo[2,3-d]pyrimidin-7-yl)-5-phenyltetrahydrofuran-3,4-diol] is 1990 nM; for `Nc1ncnc2c1c(F)cn2[C@@H]1O[C@@H](c2ccccc2)[C@@H](O)[C@H]1O` [Example 67, (2R,3R,4S,5S)-2-(4-amino-5-fluoro-7H-pyrrolo[2,3-d]pyrimidin-7-yl)-5-phenyltetrahydrofuran-3,4-diol] it is 1560 nM; for `Cc1nc(N)nc2c1ccn2[C@@H]1O[C@@H](c2ccccc2)[C@@H](O)[C@H]1O` [Example 68, (2R,3R,4S,5S)-2-(2-amino-4-methyl-7H-pyrrolo[2,3-d]pyrimidin-7-yl)-5-phenyltetrahydrofuran-3,4-diol] it is 5500 nM.
The figure for `Cc1ncnc2c1ccn2[C@@H]1O[C@@H](c2cnco2)[C@@H](O)[C@H]1O` [Example 69, (2R,3R,4S,5R)-2-(4-methyl-7H-pyrrolo[2,3-d]pyrimidin-7-yl)-5-(oxazol-5-yl)tetrahydrofuran-3,4-diol] is 1050 nM; for `Cc1ncnc2c1ccn2[C@@H]1O[C@@H]([C@@H](C)O)[C@@H](O)[C@H]1O` [Example 70, (2S,3S,4R,5R)-2-((R)-1-hydroxyethyl)-5-(4-methyl-7H-pyrrolo[2,3-d]pyrimidin-7-yl)tetrahydrofuran-3,4-diol] it is 50 nM; for `Cc1ncnc2c1ccn2[C@@H]1O[C@@H](CO)[C@@H](O)[C@H]1O` [Example 71, (2S,3S,4R,5R)-2-(hydroxymethyl)-5-(4-methyl-7H-pyrrolo[2,3-d]pyrimidin-7-yl)tetrahydrofuran-3,4-diol] it is 52 nM.
The figure for `Cc1ncnc2c1ccn2[C@@H]1O[C@@H](c2ccn[nH]2)[C@@H](O)[C@H]1O` [Example 72, (2R,3R,4S,5S)-2-(4-methyl-7H-pyrrolo[2,3-d]pyrimidin-7-yl)-5-(1H-pyrazol-5-yl)tetrahydrofuran-3,4-diol] is 2030 nM; for `Cc1ncnc2c1ccn2[C@@H]1O[C@@H]([C@@H](O)c2ccccc2)[C@@H](O)[C@H]1O` [Example 73, (2S,3S,4R,5R)-2-((S)-hydroxy(phenyl)methyl)-5-(4-methyl-7H-pyrrolo[2,3-d]pyrimidin-7-yl)tetrahydrofuran-3,4-diol] it is 23300 nM; for `Cc1ncnc2c1ccn2[C@@H]1O[C@@H]([C@H](O)c2ccccc2)[C@@H](O)[C@H]1O` [Example 74, (2S,3S,4R,5R)-2-((R)-hydroxy(phenyl)methyl)-5-(4-methyl-7H-pyrrolo[2,3-d]pyrimidin-7-yl)tetrahydrofuran-3,4-diol] it is 3140 nM.
